Assay results: patent publication US4077949A, “Polypeptide hormones of the thymus” (Sloan-Kettering Institute for Cancer Research, priority 1975, dated 1978)
Ends that are not written are not given here.

How the values were obtained:
[1] = test system: neuromuscular transmission; test: Electromyographic assay of neuromuscular transmission in mice after injection; format: in vivo; settings: for activity of QAE-Sephadex fractions in producing neuromuscular block: fractions of Example 1, FIG. 3; for dose above which a statistically significant (P < .001) electromyographic decrement was produced / mean decrement: height of the tenth muscle action potential as % of the first: mice; for dose above which a statistically significant (P < .001) electromyographic decrement was produced: five days after dose, supramaximal nerve stimulation at 50 impulses per second; for mean decrement: height of the tenth muscle action potential as % of the first: five days after doses above threshold, 50 impulses per second, controls 94 ± 2%; for active dose range per body weight: test not specified
Protocol: To determine the neuromuscular action of Thymin I and Thymin II, the electromyographic response of mice five days after various doses of Thymin I or Thymin II is summarized in FIG. 4. Bovine serum albumin (0.5 mg/ml, 0.9% saline) was used as a protein stabilizer and controls were injected with the solvent alone.
In 15 control mice sampled at 75 sites the height of the tenth muscle action potential was 94 ± 2% (mean ± s.e.m.) of the height of the first. The mean values and s.e.m. (vertical bars) are shown for groups of 4-10 mice given various doses of Thymin I(o) and Thymin II (.quadrature.). Statistical significances of differences from the controls were calculated by Student's t-test and are shown by solid symbols (P < 0.001), half solid symbols (0.05 > P < 0.001) and open symbols (P > 0.05).
Mice were given 100 ng of Thymin I or solvent and five mice from each group were tested at various times. With supramaximal nerve stimulation at 50 impulses per second the height of the tenth muscle action potential was expressed as a percentage of the first. This change was calculated for five points in each of five to ten mice from each group. For each time point the change in Thymin-treated mice was expressed as a percentage of the change in solvent-treated control mice and the statistical significance of the difference was assessed by Student's t-test. A statistically significant (P < .001) abnormality in the electromyogram was first evident at 18 hours, was maximal at 24 hours and persisted through 5 days.
To make the determinations described in FIGS. 4 and 5, extracts were injected into test animals and neuromuscular transmission was studied after an interval of one to five days. Initially 100 g guinea pigs were injected intraperitoneally; neuromuscular transmission was studied in vitro with a preparation of the phrenic nerve and hemidiaphragm. Subsequently, 200 g rats were used; fractions were injected subcutaneously and neuromuscular transmission was assessed electromyographically. […] Female Swiss-Webster mice weighing 25-35 g were injected intraperitoneally, groups of five to ten mice being used to test each fraction. The animals were anesthetized with urethane and electromyography was performed as described. The muscle action potentials were recorded in each mouse following supramaximal nerve stimulation with ten impulses at a rate of 50 per second. Five sites were sampled in each mouse and for each group of mice the mean standard deviation and s.e.m. were calculated for the change in the height of the muscle action, potential being expressed as a percentage of the height of the first impulse.
The statistical significance of differences found were assessed by student's t-test.

[2] = test system: TL antigen on mouse bone marrow cells; test: Cytotoxic inhibition test: induction of TL antigen on bone marrow cells; format: cell-based; settings: for absorption of anti TL antibody by incubated bone marrow cells: unfractionated cells, 100 ng/ml, 18 hours
Text: (§1) Mice of the A/J, C57B1/6J, AKR/J and C58/J strains were purchased from the Jackson Laboratories (Bar Harbon, Me). A.TL-mice were bred at New York University from foundation stock. All mice were housed eight to a cage, and maintained on commercial high protein mouse pellets and acidified water.
(§2) Antibodies to TL antigen were produced by injecting live tumor cells (ASL-1) into A.TL- x C57B1/6J F.1 mice. After five semimonthly injections the animals were bled and the resultant serum pooled, absorbed with A.TL- thymus to remove autoantibodies, and stored in small aliquots at -70° C. […] Anti Thy 1-2 (0-C3H) was produced by injecting AKR/J mice with C58/J thymocytes and absorbing the resultant antiserum with AKR/J thymocytes.
Thymin I and Thymin II were isolated from bovine thymus as described. Each was dissolved in phosphate buffered saline (containing 1 mg/ml of bovine serum albumen to minimize adsorbtive losses), distributed into 2 μg lots and lyophilized. Each polypeptide was reconstituted in tissue culture medium at the desired concentrations just prior to use.
(§3) Bone marrow cells were obtained from the femoral marrow. Both spleen and marrow cells were teased into single cell suspensions and washed three times in RPMI 1640 medium supplemented with 10 mM Hepes and 100 U/ml of penicillin and 100 μg/ml of streptomycin. The cells were then suspended in the same medium with 10% bovine serum at a concentration of 5.0×10^6 cells/ml. One milliliter of this suspension was incubated with an appropriate dilution of thymin in 16 mm plastic petrie dishes in a humidified atmosphere containing 5% CO2 in air. At the end of the incubation the cells were washed twice and held at 4° C. at a concentration of 5.0×10^6 cells/ml in culture medium until tested for the presence of TL or Thy-1(0).
ASL-1, a TL positive, Thy 1-2 (0-C3H) positive lymphoma of A strain mice was used as the target cell in all titrations of the antisera used in these experiments, and in the cytotoxic inhibition test to be described below. The lymphoma was maintained by weekly intraperitoneal passage in A/J mice. Lymophoma cells were labelled with Cr^51 and used as target cells in the cytotoxic inhibited test.
Antisera to either TL or Thy-1 (0) were titered to determine the quantity of antibody which was required to kill 50% of the target cells in a standard suspension. The appropriate amount of antiserum was added to each well of a microtiter plate with various dilutions of the cells being tested for their antigen content. The total volume was 0.15 ml. Cells expressing the antigen against which the antiserum was directed absorbed varying amounts of the antibody, and rendered less available to react with the Cr^51 labelled target cells which were added subsequently. The concentration of antibody used was extremely critical to the sensitivity of the test. The antisera to TL or Thy-1 (0) and the cells being tested for their antigen content were incubated together at 4° C. for 90 minutes. After this incubation 50,000 target cells in a volume of […] were added and the incubation continued in the cold for an additional 30 minutes to permit the sensitization of the target cells by the remaining unabsorbed antibody. The plates were then centrifuged at 1,500 rpm for 10 minutes and the supernatant fluid removed. The pelleted cells were resuspended in 0.1 ml or RPMI 1640, containing 4% fresh rabbit serum as a source of complement, and incubated for 45 minutes at 37° C. The cells were then repelleted by centrifugation and a 0.075 ml aliquot of the supernatant fluid was counted in an automatic gamma spectrometer to determine the amount of Cr^51 released from the target cells. All assays were performed in duplicate and the results were expressed by calculating the number of cells required to reduce the relative cytotoxic index (RCI) to 0.5. The RCI was calculated as follows: [formula]

[3] = test system: Thy-1(θ) antigen on mouse bone marrow cells; test: Cytotoxic inhibition test: induction of Thy-1(θ) antigen on bone marrow cells; format: cell-based; settings: unfractionated cells, 100 ng/ml, 18 hours
Text: as §1, §2
Thymin I and Thymin II were isolated from bovine thymus as described. Each was dissolved in phosphate buffered saline (containing 1 mg/ml of bovine serum albumen to minimize adsorbtive losses), distributed into 2 μg lots and lyophilized. […]
Antisera to either TL or Thy-1 (0) were titered to determine the quantity of antibody which was required to kill 50% of the target cells in a standard suspension. […] The cells were then repelleted by centrifugation and a 0.075 ml aliquot of the supernatant fluid was counted in an automatic gamma spectrometer to determine the amount of Cr^51 released from the target cells. […] The RCI was calculated as follows: [formula]

[4] = test system: spleen cells (least dense BSA gradient fraction); test: Direct cytotoxic test (trypan blue), anti TL antiserum plus complement, spleen cells; format: cell-based, mouse; settings: 20 ng/ml for two hours
Protocol: as §3
(§4) Bone marrow and spleen cells were obtained by flotation in BSA gradients similar to those used by Komuro and Boyse (Lancet, 10, 39, 1964). These cells were tested for their susceptibility to anti TL and Thy-1-(0) antibodies in a direct cytotoxicity test, using the uptake of trypan blue as a measure of cell death.

[5] = test system: bone marrow cells (least dense BSA gradient fraction); test: Direct cytotoxic test (trypan blue), anti TL antiserum plus complement, bone marrow cells; format: cell-based
Protocol: as §3, §4

[6] = Thymin I compared with Thymin II
[7] = single injection of 100 ng per mouse

| Substance | activity of QAE-Sephadex fractions in producing neuromuscular block [1] | dose above which a statistically significant (P < .001) electromyographic decrement was produced [1] | mean decrement: height of the tenth muscle action potential as % of the first [1] [%] | active dose range per body weight [1] | absorption of anti TL antibody by incubated bone marrow cells [2] | absorption of anti Thy-1(θ) antibody by incubated bone marrow cells [3] | death of spleen cells caused by anti TL antiserum plus complement [4] [%] | relative activity on neuromuscular transmission [1, 6] | time at which abnormality in the electromyogram was maximal [1, 7] [h] | time through which abnormality in the electromyogram persisted [1, 7] [days] | time at which abnormality in the electromyogram was first evident ([1]; single injection of 100 ng per mouse, P < .001) [h] | active concentration as a fraction of that of the Bach et al. preparation [2] | relative potency in inducing TL and Thy-1(θ) antigens [2, 6] | concentration giving maximal induction of TL and Thy-1(θ) antigens ([2]; bone marrow cells) [ng/mL] | lowest concentration producing a measurable (detectable) response ([2]; bone marrow cells) [pg/mL] | death of bone marrow cells caused by anti TL antiserum plus complement ([5]; 20 ng/ml for two hours, least dense fraction) [%] | highest cell death values obtained in other experiments ([5]; anti TL antiserum plus complement, tissue not specified) [%] |
| --- | --- | --- | --- | --- | --- | --- | --- | --- | --- | --- | --- | --- | --- | --- | --- | --- | --- |
| H2 n-ser-gln-phe-leu-glu-asp-pro-ser-val-leu-thr-lys-glu-lys-leu-lys-ser-glu- leu-val-ala-asn-asn-val-thr-leu-pro-ala-gly-glu-gln-arg-lys-asp-val-tyr-val-gln-leu-tyr-leu-gln-thr-leu-thr-ala-val-lys-arg-cooh [Thymin II] | active in producing neuromuscular block | above 32 ng/mouse | 82 | above 0.1 mg/kg of body weight | absorbed antibodies | absorbed antibodies |  |  |  |  |  |  |  |  |  |  |  |
| GQFLEDPSVLTKEKLKSELVANNVTLPAGEQRKDVYVQLYLQHLTAVKR [Thymin I, H2 -gly-gln-phe-leu-glu-asp-pro-ser-val-leu-thr-lys-glu-lys-leu-lys-ser-glu-leu-val-ala-asn-asn-val-thr-leu-pro-ala-gly-glu-gln-arg-lys-asp-val-tyr-val- gln-leu-tyr-leu-gln-his-leu-thr-ala-val-lys-arg-cooh] | active in producing neuromuscular block | above 4 ng/mouse | 84 | above 0.1 mg/kg of body weight | absorbed antibodies | absorbed antibodies | 18 | slightly more active | 24 | ≥ 5 | 18 | approximately one thousandth | slightly more potent | 2 | 20 | 21 | ≤ 28 |
